# Assays:
# [1] = biological target: T1, Endothelin-converting enzyme 1 (Homo sapiens, UniProt P42892); test: Inhibitory concentration against human ECE-1 by RIA
# T1 sequence (P42892 whole entry): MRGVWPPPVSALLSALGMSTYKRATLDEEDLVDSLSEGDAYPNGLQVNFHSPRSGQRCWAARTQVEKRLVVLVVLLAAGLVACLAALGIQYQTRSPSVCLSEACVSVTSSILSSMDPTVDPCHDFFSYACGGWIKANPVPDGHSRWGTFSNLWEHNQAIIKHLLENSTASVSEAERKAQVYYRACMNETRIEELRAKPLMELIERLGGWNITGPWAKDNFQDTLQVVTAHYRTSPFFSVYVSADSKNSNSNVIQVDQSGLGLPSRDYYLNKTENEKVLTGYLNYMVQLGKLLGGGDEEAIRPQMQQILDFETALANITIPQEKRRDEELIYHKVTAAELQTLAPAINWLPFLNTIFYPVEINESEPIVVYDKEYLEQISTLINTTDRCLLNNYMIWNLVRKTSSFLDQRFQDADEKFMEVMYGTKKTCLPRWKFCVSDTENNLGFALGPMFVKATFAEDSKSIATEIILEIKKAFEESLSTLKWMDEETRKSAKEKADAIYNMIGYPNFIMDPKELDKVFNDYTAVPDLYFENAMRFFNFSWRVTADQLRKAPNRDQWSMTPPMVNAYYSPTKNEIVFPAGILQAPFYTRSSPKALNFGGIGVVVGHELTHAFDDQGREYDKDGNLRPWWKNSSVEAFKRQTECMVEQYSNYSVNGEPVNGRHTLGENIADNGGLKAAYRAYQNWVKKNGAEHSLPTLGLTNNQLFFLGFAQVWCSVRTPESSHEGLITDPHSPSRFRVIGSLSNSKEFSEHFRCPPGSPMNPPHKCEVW
# [2] = biological target: T1, Endothelin-converting enzyme 1; test: Inhibitory concentration against human ECE-1 expressed in MDCK cells; format: cell-based
# Neprilysin = Neprilysin (Homo sapiens, UniProt P08473); test: Inhibitory concentration against Neprilysin
# Chain of Neprilysin (P08473 whole entry): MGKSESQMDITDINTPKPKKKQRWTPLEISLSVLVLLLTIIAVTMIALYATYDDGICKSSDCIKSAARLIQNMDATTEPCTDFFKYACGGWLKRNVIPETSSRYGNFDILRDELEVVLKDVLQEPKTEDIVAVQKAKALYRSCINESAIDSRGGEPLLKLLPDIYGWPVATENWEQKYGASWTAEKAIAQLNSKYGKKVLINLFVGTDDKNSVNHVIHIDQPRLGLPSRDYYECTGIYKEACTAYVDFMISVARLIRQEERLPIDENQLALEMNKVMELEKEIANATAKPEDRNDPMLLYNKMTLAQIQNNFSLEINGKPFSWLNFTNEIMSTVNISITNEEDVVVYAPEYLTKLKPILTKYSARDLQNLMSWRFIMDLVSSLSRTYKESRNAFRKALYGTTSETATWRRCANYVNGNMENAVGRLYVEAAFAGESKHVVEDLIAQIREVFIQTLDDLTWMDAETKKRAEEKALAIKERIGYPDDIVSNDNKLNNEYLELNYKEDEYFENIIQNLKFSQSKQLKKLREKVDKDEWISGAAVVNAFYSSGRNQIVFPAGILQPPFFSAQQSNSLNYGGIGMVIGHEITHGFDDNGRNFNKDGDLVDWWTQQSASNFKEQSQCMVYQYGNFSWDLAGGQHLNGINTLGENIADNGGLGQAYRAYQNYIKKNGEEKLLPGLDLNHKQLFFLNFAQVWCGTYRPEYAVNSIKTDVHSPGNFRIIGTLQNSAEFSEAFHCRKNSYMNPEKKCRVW
# [3] = biological target: Angiotensin-converting enzyme (Homo sapiens, UniProt P12821); test: Inhibitory concentration against human angiotensin I converting enzyme
# Chain of Angiotensin-converting enzyme (P12821 whole entry): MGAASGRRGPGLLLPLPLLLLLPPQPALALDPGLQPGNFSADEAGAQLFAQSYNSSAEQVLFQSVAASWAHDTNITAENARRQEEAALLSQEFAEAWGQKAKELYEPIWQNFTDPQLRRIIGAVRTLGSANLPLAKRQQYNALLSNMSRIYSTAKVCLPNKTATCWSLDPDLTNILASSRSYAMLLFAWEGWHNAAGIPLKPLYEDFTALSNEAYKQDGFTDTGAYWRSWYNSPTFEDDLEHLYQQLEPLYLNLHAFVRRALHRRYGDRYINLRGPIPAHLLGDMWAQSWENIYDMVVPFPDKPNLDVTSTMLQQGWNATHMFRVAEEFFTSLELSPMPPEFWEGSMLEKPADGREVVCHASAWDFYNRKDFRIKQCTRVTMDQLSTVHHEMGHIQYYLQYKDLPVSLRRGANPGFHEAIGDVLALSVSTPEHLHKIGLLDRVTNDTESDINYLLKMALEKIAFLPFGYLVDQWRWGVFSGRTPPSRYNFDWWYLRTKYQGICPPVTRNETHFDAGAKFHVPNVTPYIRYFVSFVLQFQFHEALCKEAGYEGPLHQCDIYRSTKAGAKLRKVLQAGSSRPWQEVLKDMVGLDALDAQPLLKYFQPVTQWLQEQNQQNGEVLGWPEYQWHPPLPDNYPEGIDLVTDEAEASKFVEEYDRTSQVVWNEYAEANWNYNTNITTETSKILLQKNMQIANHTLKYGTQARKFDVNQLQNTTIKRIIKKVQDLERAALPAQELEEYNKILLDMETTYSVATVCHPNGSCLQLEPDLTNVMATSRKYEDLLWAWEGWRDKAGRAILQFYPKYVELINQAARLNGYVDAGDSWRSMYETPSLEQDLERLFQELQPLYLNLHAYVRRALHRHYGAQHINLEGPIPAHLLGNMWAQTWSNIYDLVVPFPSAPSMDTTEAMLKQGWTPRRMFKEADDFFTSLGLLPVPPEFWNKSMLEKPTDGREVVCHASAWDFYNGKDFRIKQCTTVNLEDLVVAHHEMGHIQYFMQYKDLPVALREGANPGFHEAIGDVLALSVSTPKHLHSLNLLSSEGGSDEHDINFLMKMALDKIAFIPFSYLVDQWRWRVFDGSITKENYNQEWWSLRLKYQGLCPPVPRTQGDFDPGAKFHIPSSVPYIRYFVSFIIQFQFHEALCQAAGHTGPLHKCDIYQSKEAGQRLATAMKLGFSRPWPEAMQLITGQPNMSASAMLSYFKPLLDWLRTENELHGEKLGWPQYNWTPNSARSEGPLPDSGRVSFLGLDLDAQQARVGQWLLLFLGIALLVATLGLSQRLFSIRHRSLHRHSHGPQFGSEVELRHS
# cells [4] = conditions: Homo sapiens, Glioblastoma
# Description: (§1) Inhibitory concentration against DNA synthesis in LNZ308 glioblastoma cells
# cells [5] = conditions: Homo sapiens, Glioblastoma; remark: listed apart in the source
# Description: Inhibitory concentration against DNA synthesis in LN18 glioblastoma cells
# cells [6] = conditions: Homo sapiens, Glioblastoma; remark: listed apart in the source
# Description: as §1
# cells [7] = conditions: Homo sapiens, Glioblastoma; remark: listed apart in the source
# Description: Inhibitory concentration againstDNA synthesis in LN18 glioblastoma cells
# [8] = Inhibitory concentration of the compound was determined against DNA synthesis in LN18 glioblastoma cells; format: functional, cell-based; conditions: Homo sapiens
IC50 [1] [µM],IC50 [2] [µM],IC50 (Neprilysin) [µM],IC50 [3] [µM],IC50 (cells [4]) [µM],IC50 (cells [5]) [µM],IC50 (cells [6]) [µM],IC50 (cells [7]) [µM],IC50 [8] [µM],SMILES
0.0497,0.48,> 100,> 100,20,18,,,,O=C(S[C@@H]1C[C@@H](COCc2cc(F)c(F)cc2F)N(C(=O)Oc2cccc3c2OCCO3)C1)c1ccccc1
0.0012,0.067,> 100,13.4,,,,,,COC(=O)c1ccccc1OC(=O)N1CC(S)CC1COCc1cc(F)c(F)cc1F (centres undefined)
0.0069,0.0765,> 100,> 100,,,16,14,,CC(=O)S[C@@H]1C[C@@H](COCc2cc(F)c(F)cc2F)N(C(=O)Oc2cccc3c2OCCO3)C1
0.0104,0.0729,> 100,31.5,,,40,,19,CCCc1cnc(N2C[C@H](S)C[C@H]2CNCc2cc(F)ccc2F)nc1
0.0808,10.9,81.9,36.6,16,12,,,,COC(=O)c1ccccc1NC(=O)CN(C)C(=O)C1C[C@@H](S)CN1S(=O)(=O)c1ccc2ccccc2c1 (some centres undefined)
0.0613,2.53,39.2,14.6,,,,,,Cc1ccc(S(=O)(=O)NN(C)C(=O)C2C[C@@H](S)CN2S(=O)(=O)c2ccc3ccccc3c2)cc1 (some centres undefined)
0.016,1.09,> 100,> 100,50,27,,,,CC(C)OC(=O)N1C[C@H](S)C[C@H]1CNCc1cc(F)ccc1F

SMILES,IC50 [1] [µM],IC50 [2] [µM],IC50 (Neprilysin) [µM],IC50 [3] [µM],IC50 (cells [4]) [µM],IC50 (cells [5]) [µM],IC50 (cells [6]) [µM],IC50 (cells [7]) [µM],IC50 [8] [µM]
O=P(O)(O)C(Cc1ccc2ccccc2c1)N[C@@H](Cc1ccc(-c2ccccc2)cc1)c1nnn[nH]1 (some centres undefined) [CGS-314447],0.02,,,,,,,,
